Laboratory results published in patent US6413938B1, “Benzimidazole derivatives for the treatment of viral infections” (The Regents of the University of Michigan, priority 1997, dated 2002).

Tested on: HCMV strain AD169
Assay: Human Cytomegalovirus Assay
Type: cell-based
Settings: Human betaherpesvirus 5, 120 h; HCMV strain AD169 on MRC5 cell monolayers, 5 days, HCMV DNA by blotting and hybridization
Description: HCMV strain AD169 was grown on monolayers of human embryonic lung cells (MRC5 cells) in 96 well plates. After infection of the cells at a ratio of approximately 0.01 infectious virus particles per cell; the compounds to be tested were added to selected wells at six different concentrations, each in triplicate. The same concentrations of compounds were also applied to wells containing monolayers of uninfected cells in order to assess compound cytotoxicity. The plates were incubated for 5 days, and the minimum cytotoxic dose was estimated from microscopic examination. The IC50 for antiviral effect was estimated from measurements of HCMV DNA in each well by blotting and quantitative specific DNA hybridization, similar to the method of Gadler (Antimicrob. Agents Chemother. 1983, 24, 370-374).

SMILES | IC50 [µM]
CC(C)Nc1nc2c(Cl)cc(Cl)cc2n1[C@@H]1O[C@H](C)[C@@H](O)[C@H]1O [Example 9, 4,6-Dichloro-1-(5-deoxy-beta-D-ribofuranosyl)-N-(1-methylethyl)-1H-benzimidazol-2-amine] | 6.9
CC(C)Nc1nc2c(Cl)c(Cl)ccc2n1[C@@H]1O[C@H](C)[C@@H](O)[C@H]1O [Example 12, 4,5-Dichloro-1-(5deoxy-beta-D-ribofuranosyl)-N-(1-methylethyl)-1H-benzimidazol-2-amine] | 3.5
CC(C)Nc1nc2cc(C(F)(F)F)ccc2n1[C@@H]1O[C@H](C)[C@@H](O)[C@H]1O [Example 44, 5-Trifluoromethyl-1-(5-Deoxy-beta-D-ribofuranosyl)-N-(1-methylethyl)-1H-benzimidazol-2-amine] | 7
CC(C)Nc1nc2ccc(C(F)(F)F)cc2n1[C@@H]1O[C@H](C)[C@@H](O)[C@H]1O [Example 46, 6-trifluoromethyl-1-(5-Deoxy-beta-D-ribofuranosyl)-N-(1-methylethyl)-1H-benzimidazol-2-amine] | 6.1
CC(C)Nc1nc2ccc(Cl)cc2n1[C@@H]1O[C@H](C)[C@@H](O)[C@H]1O [Example 50, 6-Chloro-1-(5-deoxy-β-D-ribofuranosyl)-N-(1-methylethyl)-1H-benzimidazol-2-amine] | 7
C[C@H]1O[C@@H](n2c(NC3CC3)nc3cc(Cl)c(Cl)cc32)[C@H](O)[C@@H]1O [Example 59, 5,6-Dichloro-1-(5-deoxy-beta-D-ribofuranosyl)-N-(cyclopropyl)-1H-benzimidazol-2-amine] | 1.1

Tested on: not given
Assay: not given
Settings: not given

melting point [°C] | SMILES
133 to 135 | C[C@H]1O[C@@H](n2c(Br)nc3cc(Cl)c(Cl)cc32)[C@H](O)[C@@H]1O (hydrate or solvate) [Example 4, 2-Bromo-5,6-dichloro-1-(5-deoxy-beta-D-ribofuranosyl)-1H-benzimidazole]
148 to 151 | CC(C)Nc1nc2c(F)c(F)c(F)cc2n1[C@@H]1O[C@H](C)[C@@H](O)[C@H]1O [Example 19, 4,5,6-Trifluoro-1-(5-deoxy-beta-D-ribofuranosyl)-N-(1-methylethyl)-1H-benzimidazol-2-amine]
175 to 178 | CC(C)Nc1nc2cc(F)c(F)c(F)c2n1[C@@H]1O[C@H](C)[C@@H](O)[C@H]1O [Example 20, 5,6,7-Trifluoro-1-(5-deoxy-beta-D-ribofuranosyl)-N-(1-methylethyl)1H-benzimidazol-2-amine]
126 to 127 | CC(=O)O[C@@H]1[C@H](OC(C)=O)[C@@H](C)O[C@H]1n1c(Cl)nc2c(Cl)c(Cl)c(Cl)cc21 [Example 68, 2,4,5,6-Tetrachloro-1-(2,3-di-O-acetyl-5-deoxy-beta-D-ribofuranosyl)-1H-benzimidazole]
160 to 162 | CC(=O)O[C@@H]1[C@H](OC(C)=O)[C@@H](C)O[C@H]1n1c(Br)nc2c(Cl)c(Cl)c(Cl)cc21 [Example 69, 2-Bromo4,5,6-trichloro-1-(2,3-di-O-acetyl-5-deoxy-beta-D-ribofuranosyl)-1H-benzimidazole]
138 to 141 | CC(=O)O[C@@H]1[C@H](OC(C)=O)[C@@H](C)O[C@H]1n1c(Cl)nc2c(Br)c(Cl)c(Cl)cc21 [Example 70, 4-Bromo-2,5,6-trichloro-1-(2,3-di-O-acetyl-5-deoxy-beta-D-ribofuranosyl)-1H-benzimidazole]
152 to 154 | CC(=O)O[C@@H]1[C@H](OC(C)=O)[C@@H](C)O[C@H]1n1c(Br)nc2c(Br)c(Cl)c(Cl)cc21 [Example 71, 2,4-Dibromo-5,6-dichloro-1-(2,3-di-O-acetyl-5-deoxy-beta-D-ribofuranosyl)-1H-benzimidazole]
120 to 122 | C[C@H]1O[C@H](n2c(Cl)nc3cc(Cl)c(Cl)cc32)[C@@H](O)[C@H]1O [Example 72, 2,5,6-Trichloro-1-(5-deoxy-α-D-lyxofuranosyl)1H-benzimidazole]
145 to 148 | C[C@H]1O[C@@H](n2c(Br)nc3cc(Cl)c(Cl)cc32)[C@H](O)[C@@H]1O [Example 73, 2-Bromo-5,6-dichloro-1-(5-deoxy-β-D-ribofuranosyl)benzimidazole]
